From US20220395496A1 (Hoffmann-La Roche Inc., priority 2019, published 2022)

Biological target: T1, human TLR9 (Homo sapiens, UniProt Q9NR96)
T1 sequence (Q9NR96 26-1032): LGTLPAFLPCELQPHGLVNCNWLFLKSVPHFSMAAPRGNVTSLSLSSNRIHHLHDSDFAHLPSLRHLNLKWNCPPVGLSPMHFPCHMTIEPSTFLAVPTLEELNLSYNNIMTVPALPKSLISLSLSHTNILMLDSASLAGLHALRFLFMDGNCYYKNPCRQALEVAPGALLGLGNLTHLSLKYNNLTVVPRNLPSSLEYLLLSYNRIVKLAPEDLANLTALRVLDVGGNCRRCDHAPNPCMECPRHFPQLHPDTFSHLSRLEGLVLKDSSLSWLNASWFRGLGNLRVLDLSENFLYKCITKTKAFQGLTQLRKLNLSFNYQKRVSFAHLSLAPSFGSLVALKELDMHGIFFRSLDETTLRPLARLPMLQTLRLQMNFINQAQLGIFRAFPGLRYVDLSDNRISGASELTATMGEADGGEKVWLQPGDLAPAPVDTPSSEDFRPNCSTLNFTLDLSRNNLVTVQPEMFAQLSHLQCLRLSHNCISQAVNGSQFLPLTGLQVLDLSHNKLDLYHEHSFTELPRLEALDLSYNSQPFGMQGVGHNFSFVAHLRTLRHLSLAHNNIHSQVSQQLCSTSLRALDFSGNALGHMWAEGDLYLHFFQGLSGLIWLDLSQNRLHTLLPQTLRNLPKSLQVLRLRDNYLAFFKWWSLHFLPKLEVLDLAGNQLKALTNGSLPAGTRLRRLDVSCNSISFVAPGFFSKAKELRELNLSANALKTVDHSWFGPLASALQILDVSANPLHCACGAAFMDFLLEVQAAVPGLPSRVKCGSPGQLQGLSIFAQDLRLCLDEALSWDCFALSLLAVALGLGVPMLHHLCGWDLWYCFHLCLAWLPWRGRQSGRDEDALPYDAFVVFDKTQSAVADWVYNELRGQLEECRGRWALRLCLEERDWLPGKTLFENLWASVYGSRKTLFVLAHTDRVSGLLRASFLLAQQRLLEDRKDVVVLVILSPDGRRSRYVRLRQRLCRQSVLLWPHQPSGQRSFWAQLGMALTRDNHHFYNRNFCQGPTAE
Assay: HEK293-Blue-hTLR-9 cells assay (SEAP reporter, ODN2006 stimulation)
Type: cell-based
Conditions: HEK293-Blue-hTLR9 cells, ODN2006, 20 hrs
Description: The following tests were carried out in order to determine the activity of the compounds of this invention in HEK293-Blue-hTLR-7/8/9 cells assay.
HEK293-Blue-hTLR-9 Cells Assay:
A stable HEK293-Blue-hTLR-9 cell line was purchased from InvivoGen (Cat. #: hkb-htlr9, San Diego, Calif., USA). These cells were originally designed for studying the stimulation of human TLR9 by monitoring the activation of NF-κB. A SEAP (secreted embryonic alkaline phosphatase) reporter gene was placed under the control of the IFN-β minimal promoter fused to five NF-κB and AP-1-binding sites. The SEAP was induced by activating NF-κB and AP-1 via stimulating HEK-Blue hTLR9 cells with TLR9 ligands. Therefore the reporter expression was declined by TLR9 antagonist under the stimulation of a ligand, such as ODN2006 (Cat. #: tlr1-2006-1, Invivogen, San Diego, Calif., USA), for incubation of 20 hrs. The cell culture supernatant SEAP reporter activity was determined using QUANTI-Blue™ kit (Cat. #: rep-qb1, Invivogen, San Diego, Calif., USA) at a wavelength of 640 nm, a detection medium that turns purple or blue in the presence of alkaline phosphatase.
HEK293-Blue-hTLR9 cells were incubated at a density of 250,000˜450,000 cells/mL in a volume of 170 μL in a 96-well plate in Dulbecco's Modified Eagle's medium (DMEM) containing 4.5 g/L glucose, 50 U/mL penicillin, […], 2 mM L-glutamine, 10% (v/v) heat-inactivated fetal bovine serum with addition of 20 μL test compound in a serial dilution in the presence of final DMSO at 1% and 10 μL of 20 uM ODN2006 in above DMEM, perform incubation under 37° C. in a CO2 incubator for 20 hrs. Then 20 μL of the supernatant from each well was incubated with 180 μL Quanti-blue substrate solution at 37° C. for 2 hrs and the absorbance was read at 620˜655 nm using a spectrophotometer. The signalling pathway that TLR9 activation leads to downstream NF-κB activation has been widely accepted, and therefore similar reporter assay was modified for evaluating TLR9 antagonist.

SMILES | IC50
CC(N[C@@H]1C[C@H](C)CN(c2ccc(C#N)c3ncccc23)C1)c1ccc(N2CCNCC2)cc1 (stereo partly drawn) [Example 26, 5-[(3S,5R)-3-methyl-5-[1-(4-piperazin-1-ylphenyl)ethylamino]-1-piperidyl]quinoline-8-carbonitrile] | 55 nM
C[C@H]1C[C@@H](NCc2ccc(N3CCNCC3)cc2)CN(c2ccc(C#N)c3nccnc23)C1 [Example 3, 8-[(3S,5R)-3-methyl-5-[(4-piperazin-1-ylphenyl)methylamino]-1-piperidyl]quinoxaline-5-carbonitrile] | 77 nM
C[C@H]1C[C@@H](NCc2ccc(N3CCN(C)CC3)cn2)CN(c2ccc(C#N)c3ncsc23)C1 [Example 18, 7-[(3S,5R)-3-methyl-5-[[5-(4-methylpiperazin-1-yl)-2-pyridyl]methylamino]-1-piperidyl]-1,3-benzothiazole-4-carbonitrile] | 116 nM
C[C@H]1C[C@@H](NCc2cnc(N3CCN(C)CC3)nc2)CN(c2ccc(C#N)c3ncccc23)C1 [Example 16, 5-[(3S,5R)-3-methyl-5-[[2-(4-methylpiperazin-1-yl)pyrimidin-5-yl]methylamino]-1-piperidyl]quinoline-8-carbonitrile] | 77 nM
C[C@H]1C[C@@H](NCc2cccc(N3CCN(C)CC3)c2)CN(c2ccc(C#N)c3ncccc23)C1 [Example 6, 5-[(3S,5R)-3-methyl-5-[[3-(4-methylpiperazin-1-yl)phenyl]methylamino]-1-piperidyl]quinoline-8-carbonitrile] | 70 nM
Cc1cc(-c2ccc(CN[C@@H]3C[C@H](C)CN(c4ccc(C#N)c5ncccc45)C3)cc2)cc(C)n1 [Example 15, 5-[(3R,5S)-3-[[4-(2,6-dimethyl-4-pyridyl)phenyl]methylamino]-5-methyl-1-piperidyl]quinoline-8-carbonitrile] | 126 nM
C[C@H]1C[C@@H](N(C)Cc2ccc(N3CCNCC3)cc2)CN(c2ccc(C#N)c3ncccc23)C1 [Example 9, 5-[(3S,5R)-3-methyl-5-[methyl-[(4-piperazin-1-ylphenyl)methyl]amino]-1-piperidyl]quinoline-8-carbonitrile] | 95 nM
C[C@H]1C[C@@H](NCc2ccc(N3CCNCC3)cc2)CN(c2ccc(Cl)c3ncccc23)C1 [Example 22, (3R,5S)-1-(8-chloro-5-quinolyl)-5-methyl-N-[(4-piperazin-1-ylphenyl)methyl]piperidin-3-amine] | 183 nM
C[C@H]1C[C@@H](N2CCc3cc(N4CCNCC4)ccc3C2)CN(c2ccc(C#N)c3ncccc23)C1 (relative stereo) [Example 24, 5-[cis-3-methyl-5-(6-piperazin-1-yl-3,4-dihydro-1H-isoquinolin-2-yl)-1-piperidyl]quinoline-8-carbonitrile] | 70 nM
C[C@H]1C[C@@H](NCc2ccc(N3CCC(N)C3)cc2)CN(c2ccc(C#N)c3ncccc23)C1 (stereo partly drawn) [Example 13, 5-[(3R,5S)-3-[[4-(3-aminopyrrolidin-1-yl)phenyl]methylamino]-5-methyl-1-piperidyl]quinoline-8-carbonitrile] | 163 nM

Further lines, results first:

IC50 | SMILES
82 nM | C[C@H]1C[C@@H](NCc2ccc3c(c2)CCNC3)CN(c2ccc(C#N)c3ncccc23)C1 [Example 11, 5-[(3S,5R)-3-methyl-5-(1,2,3,4-tetrahydroisoquinolin-6-ylmethylamino)-1-piperidyl]quinoline-8-carbonitrile]
94 nM | C[C@H]1C[C@@H](NCc2ccc(N3CCNCC3)cc2F)CN(c2ccc(C#N)c3ncccc23)C1 [Example 4, 5-[(3R,58)-3-[(2-fluoro-4-piperazin-1-yl-phenyl)methylamino]-5-methyl-1-piperidyl]quinoline-8-carbonitrile]
32 nM | C[C@H]1C[C@@H](NCc2cnc(N3CCN[C@@H](C)C3)nc2)CN(c2ccc(C#N)c3ncccc23)C1 [Example 29, 5-[(3S,5R)-3-methyl-5-[[2-[(3S)-3-methylpiperazin-1-yl]pyrimidin-5-yl]methylamino]-1-piperidyl]quinoline-8-carbonitrile]
33 nM | C[C@H]1C[C@@H](NCc2ccc3c(n2)CCNC3)CN(c2ccc(C#N)c3ncccc23)C1 [Example 30, 5-[(3S,5R)-3-methyl-5-(5,6,7,8-tetrahydro-1,6-naphthyridin-2-ylmethylamino)-1-piperidyl]quinoline-8-carbonitrile]
61 nM | C[C@H]1C[C@@H](NCc2ncc(N3CCNCC3)cn2)CN(c2ccc(C#N)c3ncccc23)C1 [Example 25, 5-[(3S,5R)-3-methyl-5-[(5-piperazin-1-ylpyrimidin-2-yl)methylamino]-1-piperidyl]quinoline-8-carbonitrile]
88 nM | C[C@H]1C[C@@H](NCc2cccc(N3CCNCC3)c2)CN(c2ccc(C#N)c3ncccc23)C1 [Example 8, 5-[(3S,5R)-3-methyl-5-[(3-piperazin-1-ylphenyl)methylamino]-1-piperidyl]quinoline-8-carbonitrile]
48 nM | C[C@H]1C[C@@H](NCc2cnc(N3CCN[C@H](C)C3)nc2)CN(c2ccc(C#N)c3ncccc23)C1 [Example 28, 5-[(3S,5R)-3-methyl-5-[[2-[(3R)-3-methylpiperazin-1-yl]pyrimidin-5-yl]methylamino]-1-piperidyl]quinoline-8-carbonitrile]
69 nM | C[C@H]1C[C@@H](NCc2ccc(N3CCN(C)CC3)cc2)CN(c2ccc(C#N)c3ncccc23)C1 [Example 7, 5-[(3S,5R)-3-methyl-5-[[4-(4-methylpiperazin-1-yl)phenyl]methylamino]-1-piperidyl]quinoline-8-carbonitrile]
47 nM | C[C@H]1C[C@@H](NCc2cnc(N3CCNCC3)cn2)CN(c2ccc(C#N)c3ncccc23)C1 [Example 31, 5-[(3S,5R)-3-methyl-5-[(5-piperazin-1-ylpyrazin-2-yl)methylamino]-1-piperidyl]quinoline-8-carbonitrile]
68 nM | C[C@H]1C[C@@H](NCc2ccc(N3CCNCC3)cn2)CN(c2ccc(C#N)c3ncccc23)C1 [Example 5, 5-[(3S,5R)-3-methyl-5-[(5-piperazin-1-yl-2-pyridyl)methylamino]-1-piperidyl]quinoline-8-carbonitrile]
